# Results published in patent publication US20230272016A1, “PEPTIDES FOR IMMUNOTHERAPY” (Second Genome, Inc., priority 2020, published 2023).
# What was measured:
# [1] = molecular target: T1, CCR7 (Homo sapiens, UniProt P32248); assay: PathHunter β-Arrestin GPCR assay (gpcrMAX); type: cell-based; conditions: vehicle DMSO = 0%, control ligand = 100%
# T1 construct: expressed in transfected cells
# T1 sequence (P32248 25-378): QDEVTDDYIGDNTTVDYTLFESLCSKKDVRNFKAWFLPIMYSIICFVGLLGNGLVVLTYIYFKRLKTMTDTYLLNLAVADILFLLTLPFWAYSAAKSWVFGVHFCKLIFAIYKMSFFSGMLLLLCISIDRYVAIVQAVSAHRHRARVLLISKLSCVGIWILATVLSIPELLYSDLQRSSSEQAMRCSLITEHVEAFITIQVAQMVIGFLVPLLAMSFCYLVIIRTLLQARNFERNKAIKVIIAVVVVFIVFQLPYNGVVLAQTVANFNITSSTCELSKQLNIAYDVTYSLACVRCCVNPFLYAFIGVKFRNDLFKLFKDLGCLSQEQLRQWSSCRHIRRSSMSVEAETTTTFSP
# Excerpt: (§1) The PathHunter® β-Arrestin Assay monitored activation of a panel of 168 G-protein coupled receptors (GPCRs) with […] activation of the GPCR in agonist and antagonist mode.
# (§2) where the test sample is the peptide, the vehicle control=DMSO (0% activity), and the control ligand=control compound (100% activity).
# (§3) Peptides SG-3-00802 and SG-3-05021 were identified as an agonist, an antagonist, a PAM (Positive Allosteric Modulator), or an inverse-agonist. Agonist, antagonist, PAM, and inverse-agonist were identified according to the guidelines in Table 18. The basal activity/noise is a % activity of −20% to 20% for both agonist and antagonist modes. A PAM (Positive Allosteric Modulator) binds to a receptor, at a different site than the agonist, to change the receptor's response to the agonist. An inverse-Agonist is a binding partner with agonistic shutting down of basal activity in the cell. An antagonist antagonizes the activity of a particular binding partner.
# [2] = molecular target: T2, CXCR4 (Homo sapiens, UniProt P61073); assay: PathHunter β-Arrestin GPCR assay (gpcrMAX); type: cell-based; conditions: vehicle DMSO = 0%, control ligand = 100%
# T2 construct: expressed in transfected cells
# T2 sequence (P61073 whole entry): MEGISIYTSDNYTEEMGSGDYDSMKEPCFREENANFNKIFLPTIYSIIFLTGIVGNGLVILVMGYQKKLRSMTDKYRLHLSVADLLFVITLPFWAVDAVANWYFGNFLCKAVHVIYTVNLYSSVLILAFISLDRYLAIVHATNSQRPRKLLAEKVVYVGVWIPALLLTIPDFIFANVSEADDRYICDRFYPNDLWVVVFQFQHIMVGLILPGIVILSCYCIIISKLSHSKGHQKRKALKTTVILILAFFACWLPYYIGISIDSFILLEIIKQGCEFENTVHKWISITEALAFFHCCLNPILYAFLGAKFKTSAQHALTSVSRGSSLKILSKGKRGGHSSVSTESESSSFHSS
# Excerpt: as §1, §2, §3
# [3] = molecular target: T3, SSTR1 (Homo sapiens, UniProt P30872); assay: PathHunter β-Arrestin GPCR assay (gpcrMAX); type: cell-based
# T3 construct: expressed in transfected cells
# T3 sequence (P30872 whole entry): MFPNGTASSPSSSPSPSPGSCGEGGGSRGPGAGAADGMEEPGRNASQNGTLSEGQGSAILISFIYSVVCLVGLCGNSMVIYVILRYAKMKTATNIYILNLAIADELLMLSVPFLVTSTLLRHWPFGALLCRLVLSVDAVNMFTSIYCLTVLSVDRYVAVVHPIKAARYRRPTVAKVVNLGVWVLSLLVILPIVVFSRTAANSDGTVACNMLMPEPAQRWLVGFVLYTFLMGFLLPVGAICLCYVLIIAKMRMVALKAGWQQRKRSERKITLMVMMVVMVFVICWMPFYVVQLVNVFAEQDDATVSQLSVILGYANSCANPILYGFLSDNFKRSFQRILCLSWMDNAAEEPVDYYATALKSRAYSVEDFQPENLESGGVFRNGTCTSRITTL
# Excerpt: as §1, §2, §3
# [4] = molecular target: T4, CXCR3 (Homo sapiens, UniProt P49682); assay: PathHunter β-Arrestin GPCR assay (gpcrMAX); type: cell-based; conditions: vehicle DMSO = 0%, control ligand = 100%
# T4 sequence (P49682 1-368): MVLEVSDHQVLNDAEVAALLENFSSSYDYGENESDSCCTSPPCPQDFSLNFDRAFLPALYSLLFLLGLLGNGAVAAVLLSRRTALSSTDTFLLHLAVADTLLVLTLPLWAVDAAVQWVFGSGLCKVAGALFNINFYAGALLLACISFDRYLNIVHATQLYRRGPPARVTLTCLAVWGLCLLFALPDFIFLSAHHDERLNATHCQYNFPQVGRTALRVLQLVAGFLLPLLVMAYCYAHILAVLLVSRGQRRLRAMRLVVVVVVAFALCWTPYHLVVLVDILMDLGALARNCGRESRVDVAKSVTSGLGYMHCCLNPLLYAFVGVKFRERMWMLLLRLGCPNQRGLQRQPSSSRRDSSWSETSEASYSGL
# Excerpt: as §1, §2, §3
# [5] = system: RENCA tumors; assay: RENCA murine adenocarcinoma syngeneic tumor model; type: in vivo, BALB/c mice; conditions: for survival time (days) / tumor volume: peptide 2.5 mg/kg daily peritumorally; for survival time (days): anti-PD-1 10 mg/kg i.p., compared to PBS or anti-PD-1 alone; for tumor volume: anti-PD-1 10 mg/kg intraperitoneal, compared to PBS treated control mice
# Experimental: To determine anti-tumor activity of SG-3-00802 in vivo, the RENCA murine adenocarcinoma model was used. It is a syngeneic, standardized experimental model of metastatic RCC. Briefly, BALB/c female mice were inoculated subcutaneously with RENCA cells. Established tumors were treated daily with 2.5 mg/kg SG-3-00802 peritumorally, alone or in combination with intraperitoneal administration of 10 mg/kg anti-PD-1 antibody. […] QD indicates administration of the peptide once a day. BID indicates administration of the peptide twice a day.
# Balb/c female mice were implanted with RENCA cells in the left flank. When tumors were established and reach ˜100 mm^3 or 200 mm^3 mice were allocated into dosing groups. Each dosing group had 10-12 animals. Peptides were dosed peritumoral at 2.5 mg/kg BID for 7 d and anti-PD-1 was dosed intraperitoneally at 10 mg/kg TIW for a total of 3 doses. Mice were monitored for tumor growth and survival. Tumor volumes were measured twice a week. A survival event (censoring) was reached when tumor volume reached 1000 mm^3 and additional survival events were defined as animals that had to be euthanized due to ulceration.
# Additional studies were performed to test survival and tumor volume responses to a re-challenge event. In one study, mice were allocated into dosing groups when tumors reached ˜100 mm^3. During the initial dosing study, time 0 was the first day of seven days of dosing. […] Re-implantation was completed on day 39 after dosing completion. Treated mice were tumor free for >20 days before being re-challenge. […] Tumor volume and survival was been monitored as previously described. In the re-challenge experiment, time 0 is day 10 after re-challenge dosing.
# In the initial dosing experiment, tumor volumes were smaller in both the SG-3-00802 alone treatment and SG-3-00802 with anti-PD-1 antibody combinatorial treatment 40 days after dosing started (FIGS. 32A-32B).
# In another re-challenge study, mice were instead allocated into dosing groups when tumors reached ˜200 mm^3. The same procedure as described above was used, except where indicated. […] Re-implantation was completed on day 37 after dosing completion, and time 0 is day 12 post re-challenge. […] In the initial dosing experiment, tumor volumes were smaller in both the SG-3-00802 alone treatment and SG-3-00802 with anti-PD-1 antibody combinatorial treatment 15 days after dosing started (FIGS. 35A-35B).
# To determine anti-tumor activity of SG-3-00802 in vivo, the RENCA murine adenocarcinoma model was used. Briefly, BALB/c female mice were inoculated subcutaneously with RENCA cells. Established tumors were treated daily with 2.5 mg/kg SG-3-00802 peritumorally, alone or in combination with intraperitoneal administration of 10 mg/kg anti-PD-1 antibody. […]
Sequence,% Agonist Activity (gpcrMAX Agonist Mode) [1],% Antagonist Activity (gpcrMAX Antagonist Mode) [1],% Agonist Activity (gpcrMAX Agonist Mode) [2],% Antagonist Activity (gpcrMAX Antagonist Mode) [2],GPCR target assay Interpretation [3],% Agonist Activity (gpcrMAX Agonist Mode) [4],% Antagonist Activity (gpcrMAX Antagonist Mode) [4],survival time (days) [5],tumor volume [5],"volume of syngeneic RENCA tumors, dose dependence ([5]; QD or BID administration of the peptide)","# of animals with complete tumor regression out of total animals per group (primary study) ([5]; Table 16, ~100 mm^3 study)","# of animals without tumor progression out of re-challenged animals per group (re-challenge study) ([5]; Table 16, ~100 mm^3 study)","# of animals with complete tumor regression out of total animals per group (primary study) ([5]; Table 17, ~200 mm^3 study)","survival, initial dosing ([5]; dosing groups allocated at tumors ~100 mm^3)","survival, initial dosing ([5]; dosing groups allocated at tumors ~200 mm^3)","tumor volumes, initial dosing experiment ([5]; ~100 mm^3 study, 40 days after dosing started)","percent of mice surviving after re-challenge ([5]; ~100 mm^3 study, re-implantation on day 39 after dosing completion, opposite flank)","tumor volumes after re-challenge ([5]; ~100 mm^3 study, vs PBS-treated control mice)","tumor volumes, initial dosing experiment ([5]; ~200 mm^3 study, 15 days after dosing started)"
"LGKTDWIEKYFKVKKEKIDKMQRFLQG [SG-3-05021, peptide from bacteroides.clarus.dsm.22519]",0%,−18%,1%,10%,Inverse-agonist and PAM,−4%,−20%,survived a longer time,decrease in tumor volume,,,,,,,,,,
"MKVRPSVKPMCEKCKIIRRKGRVMVICENPKHKQRQG [SG-3-00802, peptide from oscillibacter.sp t_155102]",,,,,Inverse-agonist,,,survived a longer time,robust decrease,dose-dependent manner,2/12,2/2,0/10,increased survival,increased survival,smaller,increased percent of mice surviving,remained smaller than PBS-treated control mice,smaller
